Where a SMILES comes first, the peptide text is derived from it.
What was measured:
[1] = target: α-chymotrypsin (Bos taurus, UniProt P00766); conditions: 100 μM peptide in DPBS, peptide-to-enzyme mass ratio 100:1, time points 0, 1, 5, 15, 30, 60 min, stopped with 0.1% TFA, RP-HPLC read-out
Method: Peptides were prepared at a concentration of 100 μM in DPBS, and α-chymotrypsin was added to achieve a final peptide-to-enzyme mass ratio of 100:1. The digestion was carried out at time points of 0, 1, 5, 15, 30, and 60 min, after which 0.1% TFA was added to terminate the reaction. The resulting samples were analyzed by reversed-phase HPLC (water/acetonitrile with 0.1% TFA) to monitor peptide stability.

[2] = tested on: FITC-labeled human IgG; assay: IgG capture test on peptide-functionalized glass slides, fluorescence imaging; type: binding; conditions: peptide immobilized via thiol-maleimide on PEG-modified epoxy glass slide; antibody 5 µg/mL in PBS, 25 °C, 3 h; ImageJ; n = 1
Method: Epoxy-functionalized microscope glass slides (Tekdon Incorporated, Myakka City, FL, USA) were mounted in eight-well chambers. For peptide immobilization, NH2-PEG5000-COOH linkers (Biopharma PEG, Watertown, MA, USA) were applied to each well at a concentration of 1 mg/mL in ddH2O and incubated for ~5 h. The slides were then rinsed three times with ddH2O. Carboxyl groups of NH2-PEG5000-COOH linkers were activated for 30 min using 4 µg/mL 1-ethyl-3-(3-dimethylaminopropyl) carbodiimide hydrochloride (EDC; Thermo Fisher Scientific, Waltham, MA, USA) and 6 µg/mL N-hydroxy succinimide (NHS; Thermo Fisher Scientific) in ddH2O. Upon activation, the surfaces were washed three times with 1× PBS (Gibco, Grand Island, NY, USA) and incubated for over 5 h with an excess of NH2-PEG1000-MAL linkers (1 mg/mL in 1× PBS; Biopharma PEG). […]
[…] (Abcam, Cambridge, UK) were used to evaluate the antibody-binding capacity of each functionalized surface. […] The amount of surface-captured antibody was quantified via fluorescence imaging. […] Fluorescence intensity was analyzed using Image J software (64-bit Java 8). […]
Figure 3 IgG capture assay using FITC-labeled human IgG to evaluate the Fc-binding capability of peptides. […] (C) Quantitative fluorescence intensity analysis performed using ImageJ software (64-bit Java 8). […]

## CSCC[C@H](NC(=O)[C@H](CC(N)=O)NC(=O)[C@@H](N)Cc1ccccc1)C(=O)N[C@@H](CCC(N)=O)C(=O)N[C@@H](C)C(=O)N[C@@H](CCC(N)=O)C(=O)N[C@@H](CCCNC(=N)N)C(=O)N[C@@H](CCCNC(=N)N)C(=O)N[C@@H](Cc1ccccc1)C(=O)N[C@@H](Cc1ccc(O)cc1)C(=O)N[C@@H](CCC(=O)O)C(=O)N[C@@H](C)C(=O)N[C@@H](CC(C)C)C(=O)N[C@@H](Cc1c[nH]cn1)C(=O)N[C@@H](CS)C(N)=O [SpA h1] (H-FNMQAQRRFYEALHC-NH2)
[1]
  time within which most of the peptide signal disappeared on α-chymotrypsin treatment: ≤ 1 min

## Protein A: Fc-binding protein of Staphylococcus aureus, positive control of the IgG capture test
[2]
  IgG-binding capacity (fluorescence intensity of captured IgG), in words: strong signal intensity

From PMC12729524, “Enhancement of Structural Stability and IgG Affinity of a Z34C-Derived α-Helical Peptide via Lactam Stapling” (Antibodies, 2025)
